Measured values: article PMC8746798, “Evaluation of 2-Thioxoimadazolidin-4-one Derivatives as Potent Anti-Cancer Agents through Apoptosis Induction and Antioxidant Activation: In Vitro and In Vivo Approaches” (Molecules, 2021)
Entries after “also recorded” stand apart in the source; their conditions may differ. Values belong to the compound of their own block, whether it stands above or below them.

Experiments:
[1] = system: HepG2 liver cancer cells; assay: MTT assay for cytotoxic screening, HepG2; type: cell-based, human; conditions: mean ± SE, n = 3
Protocol: The in vitro anti-cancer activity was assessed using the MTT assay. […] Staurosporine and 5-FU were used as reference drugs. HepG2 cells (1 × 10^4 cells/well, 96-well plate) were maintained in DMEM media supplemented with 2mML-glutamine (Lonza, Verviers, Belgium) and 10% FBS (Sigma, St. Louis, MO, USA), 1% Penicillin/Streptomycin (Lonza, Verviers, Belgium) according to the routine culture work. Cultures were incubated for 48 h with serial dilutions (0.01, 0.1, 1, 10, 100 µM) of the tested compounds. Finally, cell viability was determined by measuring the absorbance λ570 nm according to the following formula: % of cell viability = (A sapmple/A control) ×100, then IC50 calculation was calculated using GraphPad Prism 7 software.

[2] = system: THLE-2 normal liver cells; assay: MTT assay, normal liver cells; type: cell-based; conditions: n = 3
[3] = system: Solid Ehrlich carcinoma (SEC); assay: In vivo anti-tumor assay: tumor volume and tumor inhibition ratio; conditions: SEC-bearing mice, 6 mg/kg; SEC control 5802 mm^3
Protocol: We used adult Swiss albino female mice with average body weight 18–23 g obtained from Theodor Bilharzia Research Institute in Giza, Egypt. Mice were kept under constant conditions of a 12 h light–dark cycle at temperatures below controlled moisture conditions (22 ± 2 °C) with standard laboratory mouse nutrition and water entries. Approval for the experimental protocol was provided from the ethical committee of Suez Canal University for this experimental protocol (approval number REC-06-2020, Faculty of Science, Suez Canal University). Mice were adapted for approximately 10 days before use in the experiment.
Solid Ehrlich carcinoma (SEC) was obtained from the National Cancer Institute (University of Cairo, Egypt). The tumor cell line proliferated in mice after serial implantation of the peritoneal cavity (I.P.) in 0.2 mL of physiological saline containing 1 × 10^6 viable cells for 24 h. […]
We measured the length and width of the tumor using a digital Vernier clipper (Tricle Brand, Shanghai, China), then we calculate the tumor volume using the formula: V = (L × W × W)/2, where V is tumor volume, W is tumor width, and L is tumor length, and calculated the tumor inhibition ratio% using the formula: TIR %= (C − T)/C × 100, where T represents mean tumor volume of treated group and C represents mean tumor volume of the control group.

[4] = Histopathological examination of liver and kidney (H&E); type: in vivo, mice; conditions: SEC-bearing mice treated
Protocol: (§1) We randomly divided 50 mice into groups 5 groups (10 mice in each group): normal control (I) (mice injected intraperitoneally with the same volume of solvent for 14 consecutive days); group II, a group of normal mice treated with compound 4 (mice injected intraperitoneally with newly produced compound 4 at a dose of 6 mg/kg per day for 14 days); group III, solid tumor group (mice were implanted with solid tumor); group IV, group were treated with 5-FU (after 10 days of tumor implantation, mice were treated with 6 mg/kg only once); and group V, solid tumor group were treated with compound 4 (after 10 days of tumor implantation, mice were treated with 6 mg/kg only once). after one day of the previous treatment, 10 mice from each group were sacrificed and tumor weight, tumor volume (length and width of solid femoral tumor), blood and liver samples were obtained from each group. A portion of each blood sample taken was used for complete blood count (CBC) and the rest was centrifuged to obtain the serum. Serum was used for biochemical parameter estimation. The livers were rapidly dissected, washed with isotonic saline, and dried. The experiment design is summarized in Supplementary Figure S3.
(§2) Complete blood counts (CBCs) were counted using an AbbottCELLDYN®1800 Automated Hematology Analyzer (Abbott Park, IL, USA) equipped with an off-the-shelf kit (Abbott Laboratories, Abbott Park, IL, USA). For microscopic histopathological examination, tumor and kidney slices were maintained in 10% formalin, dehydrated with graduated alcohol, embedded in paraffin sections, H&E stained, and hematoxylin stained.
Specimens from mice liver cells were fixed in 10% formalin saline. Then, the samples were dehydrated with ascending series of ethanol and embedded in paraffin. A […] thick section was stained with hematoxylin and eosin and examined under a light microscope.

[5] = Serum biochemical parameters in mice; type: in vivo; conditions: SEC-bearing mice, 6 mg/Kg BW
Protocol: as §1
Evaluation of the activities of aspartate aminotransferase (AST) and alanine aminotransferase (ALT) using a commercial kit (ELITech Clinical Systems, France). The serum albumin level was measured using a kit obtained from STANBIO Company (USA). A commercial kit from the BioDiagnostic Company (Cairo, Egypt) was used to evaluate creatinine and urea levels.

[6] = Hematological parameters (CBC) in mice; type: in vivo; conditions: SEC-bearing mice, 6 mg/Kg BW
Protocol: as §1, §2

[7] = Homo sapiens, THLE-2, mean ± SE

Compound: COc1ccc(/C=C2\C(=O)NC(=S)N2c2ccccc2)cc1 [Compound 1, (E)-5-(4-Methoxybenzylidene)-1-phenyl-2-thioxoimidazolidin-4-one]
IC50 ([1]; Homo sapiens, HepG2, 48 h): 27.8 ± 0.94 µM

Compound: O=C1NC(=S)N(c2ccccc2)/C1=C/c1cc2ccccc2[nH]1 [Compound 2, (E)-5-((1H-Indol-2-yl)methylene)-1-phenyl-2-thioxoimidazolidin-4-one]
IC50 [2, 7]: 16.9 ± 1.11 µM
IC50 ([1]; Homo sapiens, HepG2, 48 h): 0.18 ± 0.03 µM

Compound: CN1C(=S)NC(=O)/C1=C\c1ccc(N(C)C)cc1 [Compound 3, (E)-5-(4-(Dimethylamino)benzylidene)-1-methyl-2-thioxoimidazolidin-4-one]
IC50 ([1]; Homo sapiens, HepG2, 48 h): 8.93 ± 0.75 µM

Compound: CN1C(=S)N(CCN2CCOCC2)C(=O)/C1=C\c1ccc2c(c1)OCO2 [Compound 5, (E)-5-(3,4-Methylenedioxybenzylidene)-3-[2-(4-morpholino)ethyl]-1-methyl-2-thioxo-imidazolidin-4-one]
IC50 ([1]; Homo sapiens, HepG2, 48 h): 1.94 ± 0.09 µM

Creatinine [5]: 0.8 ± 0.1 mg/dL
Albumin ([5]; SEC control 4.01 ± 0.4): 4.1 ± 0.3 g/dL
Total Protein ([5]; SEC control 6.6 ± 0.4): 7.2 ± 0.4 g/dL
Urea ([5]; SEC control 25.2 ± 2.3): 26.1 ± 2.7 mg/dL
RBC’s count ([6]; SEC control 7.52 ± 0.5): 7.5 ± 0.8 ×10^6/µL
Hemoglobin ([6]; SEC control 11.8 ± 0.8, mean ± SE n = 9): 10.6 ± 1.1 g/dL
WBC’s count ([6]; SEC control 16.5 ± 3.4): 13.1 ± 4.1 ×10^3/µL
Compound: O=c1[nH]cc(F)c(=O)[nH]1 [Compound 5-FU, reference compound]
IC50 ([2]; mean ± SE): 43 ± 1.29 µM
tumor volume on the final day [3]: 4177 mm^3
IC50 ([1]; 48 h): 5.18 ± 0.53 µM
kidney histopathology [4]: moderate improvement; also recorded: few tubules show evidence of renal acute tubular injury ATI
liver histopathology [4]: Hydropic degeneration of hepatocytes, nuclear pyknosis, and karyolysis still occurred
AST ([5]; SEC control 48.9 ± 5.5): 38 ± 4.6 U/L
ALT ([5]; SEC control 50 ± 2.7): 39.1 ± 3.6 U/L

Compound: C=CCN1C(=O)/C(=C\c2ccc(C)cc2)NC1=S [Compound 6, (E)-3-Allyl-5-(4-methylbenzylidene)-2-thioxoimidazolidin-4-one]
IC50 [2, 7]: 35.1 ± 1.33 µM
IC50 ([1]; Homo sapiens, HepG2, 48 h): 0.61 ± 0.08 µM

Compound: O=C1/C(=C\c2cccs2)NC(=S)N1c1ccccc1 [Compound 7, (E)-3-Phenyl-5-(thiophen-2-ylmethylene)-2-thioxoimidazolidin-4-one]
IC50 [2, 7]: 15.4 ± 0.74 µM
IC50 ([1]; Homo sapiens, HepG2, 48 h): 0.41 ± 0.009 µM

Compound: CC(C)C1NC(=S)N(CN2CCOCC2)C1=O (stereo not drawn) [Compound 10, 5-Isopropyl-3-(morpholinomethyl)-2-thioxoimidazolidin-4-one]
IC50 ([1]; Homo sapiens, HepG2, 48 h): 64.8 ± 1.63 µM

Compound: CC(C)C1(CN2CCCCC2)NC(=S)N(CN2CCCCC2)C1=O (stereo not drawn) [Compound 11, 5-Isopropyl-3,5-bis(piperidin-1-ylmethyl)-2-thioxoimidazolidin-4-one]
IC50 ([1]; Homo sapiens, HepG2, 48 h): 1.14 ± 0.05 µM

Compound: CC(C)CC1(CN2CCOCC2)NC(=S)N(CN2CCOCC2)C1=O (stereo not drawn) [Compound 12, 5-Isobutyl-3,5-bis(morpholinomethyl)-2-thioxoimidazolidin-4-one]
IC50 ([1]; Homo sapiens, HepG2, 48 h): 1.13 ± 0.066 µM

Compound: CN[C@@H]1C[C@H]2O[C@@](C)([C@@H]1OC)n1c3ccccc3c3c4c(c5c6ccccc6n2c5c31)C(=O)NC4 [Staurosporine, reference compound]
IC50 ([1]; Homo sapiens, HepG2, 48 h): 5.07 ± 0.22 µM
